Assay results: PMC3292407 (The Journal of Neuroscience, 2012)

Key:
GABAARs [1] = format: cell-based, rat; details: flumazenil (10 and 100 μM shown), cultured neurons
rats = test: Loss of Righting Reflex
GABAARs [2] = format: cell-based, rat

LORR duration (rats; flumazenil 20 mg/kg i.p. alone (F20)) | LORR duration (rats; flumazenil 200 mg/kg i.p. alone (F200)) | LORR induction (rats; flumazenil 20, 200 mg/kg alone) | Compound | Effect on DHM (1 μM) enhancement of Itonic and mIPSCs (GABAARs [1]) | Effect on EtOH-induced LORR (rats; flumazenil 10 mg/kg co-injected with EtOH 3 g/kg (E3+F10), vs E3-group) | LORR duration (rats; flumazenil 10 mg/kg with EtOH 3 g/kg and DHM 3 mg/kg (E3+D3+F10)) | LORR duration (rats; flumazenil 10 mg/kg with EtOH 3 g/kg and DHM 10 mg/kg (E3+D10+F10)) | LORR duration (rats; flumazenil 30 mg/kg with EtOH 3 g/kg and DHM 3 mg/kg (E3+D3+F30)) | Effect on EtOH-induced potentiation of Itonic and mIPSCs (GABAARs [2])
0 min | 0 min | did not induce LORR | CCOC(=O)c1ncn2c1CN(C)C(=O)c1cc(F)ccc1-2 [flumazenil, reference compound] | inhibited the DHM enhancement on GABAAR-currents in a concentration-dependent manner | did not alter LORR | 56.1 ± 4.6 min | 29.3 ± 4.8 min | 58.2 ± 3.9 min | 
 |  |  | O=c1c(O)c(-c2ccc(O)c(O)c2)oc2cc(O)cc(O)c12 [quercetin, reference compound] |  |  |  |  |  | did not change EtOH-induced potentiation
